Read-outs that look alike come from different tables or passages of the source. Residues, ends and D or L forms follow the SMILES beside them. No end group written: not given here.
Assays:
[1] = target: T1, α7nAChR (the α7 nicotinic acetylcholine receptor), allosteric site (Rattus norvegicus, UniProt Q05941); test: [3H] Ivermectin binding assay on PC12 cell membranes
T1 construct: [3H]; host or cells: wild-type PC12 cells
Protocol: PC12 membranes where obtained to perform binding assays. PC12 cells were grown until confluence on 100 mm plates. Growth medium was removed and ice-cold 50 mM Tris-HCl buffer (pH 7.4) containing 4.5 μg/μ1 aprotinin and 0.1 mM phenylmethylsulphonylfluoride (PMSF) were added. Cells were mechanically detached and pelleted by centrifugation (1040×g) for 4 minutes at 4° C. Pellets were homogenized with a Polytron and centrifuged (13000×g) for 20 minutes at 4° C. The pellets were resuspended in fresh buffer and incubated at 37° C. for 10 minutes to remove endogenous neurotransmitters. The samples were subsequently re-centrifuged. The final pellet was resuspended in buffer and the protein concentration determined using the Bradford Reagent (Sigma-Aldrich, St. Louis, MO). The cell membrane preparation was stored at −80° C.
For the binding with PC12 membranes, each incubation was performed in polystyrene tube (VWR International Ltd; Leicestershire, UK) containing 0.25 ml of membranes diluted in Tris-HCl 50 mM buffer (containing 50 μg of PC12 membranes) with 5 nM [3H] […] Thereafter, samples were filtered through Brandel GB glass fibre filters (MD, USA); pre-soaked in 0.5% polyethylenemine by a Harvester (Brandel; MD, USA). Tubes were washed 3 times with ice cold 50 mM Tris-HCl buffer. Radioactivity in the tubes was counted by scintillation spectrometry using a 300 SL Liquid scintillation counter (Lablogic Systems Limited, UK). Specific binding was determined by subtracting the non-specific (cells treated with Ivermectin 30 μM) value to all the tubes.

[2] = test system: PC12 cells; test: AChE release / AChE activity in perfusate of treated PC12 cells (Ellman assay); format: cell-based
[3] = target: allosteric site on the α7 nicotinic-receptor (Rattus norvegicus, UniProt Q05941); test: Binding affinity for the allosteric site of the α7 nicotinic-receptor, using tests for viability
[4] = target: T2, α7 nicotinic receptor (Rattus norvegicus, UniProt Q05941); test: Acetylcholine-induced calcium influx (Fluo-8) in PC12 cells; format: cell-based
T2 construct: [3H]; host or cells: wild-type PC12 cells
Protocol: PC12 cells are plated in 200 μl of complete growth medium the day before the experiment in 96 well plates. On the day of the experiment, the Fluo-8 solution (Abcam) is prepared (as provider protocol). Subsequently, 100 μl of growth medium is removed and 100 μl of Fluo-8 solution is added. Treatments with T30 and NBP-14 are added and incubated for 30 minutes in the incubator and 30 minutes room temperature.
After 1 hour, the plate is placed in the fluorescence plate reader (Fluostar). Before reading the fluorescence, acetylcholine (ACh) 100 μM is prepared and placed in the Fluostar injector. For each well, the reading will be formed by a basal fluorescence followed by acetylcholine injection that will induce an increase of calcium via nicotinic receptors. The effects of T30 and NBP-14 are then evaluated.

[5] = Cell Counting Kit-8 (CCK-8) cell viability assay; format: cell-based
Description: A Cell Counting Kit-8 (CCK-8) was used as an improvement of the SRB technique used before. By utilizing the highly water-soluble tetrazolium salt WST-8, CCK-8 produces a water-soluble formazan dye upon reduction in the presence of an electron carrier. WST-8 is reduced by dehydrogenases in cells to give a yellow colored product (formazan), which is soluble in the tissue culture medium. The amount of the formazan dye generated by the activity of dehydrogenases in cells is directly proportional to the number of living cells. PC12 cells are plated in 200 μl of complete growth medium the day before the experiment in 96 well plates. Treatments with T30 and NBP-14 are added and incubated for 1 hour in the incubator.
Subsequently, 100 μl of growth medium is removed and 10 μl of CCK-8 (Cell Counting Kit-8) solution is added. The plate is incubated for 2 hours in the incubator and then placed in the absorbance plate reader. The absorbance must be measured at 450 nm.

[6] = test system: Amyloid Precursor Protein (APP); test: Western blot detection of full-length APP in solubilized PC12 cells; format: cell-based; conditions: 1 hour
Protocol: PC12 cells are plated with growth medium in Petri Dishes for a week in order to have enough protein to detect APP in PC12 membranes and treated for 1 hour with T30 and NBP-14 before solubilizing the protein. Once the cells have grown until 90% confluence, the growth medium is removed and cells are re-suspended in 2 ml of HBSS. The cells suspension is transferred to a 15 ml tube and centrifuge 5 minutes at 1000 rpm. Then the supernatant is discarded and the pellet is re-suspended in Lysis buffer (20 mM Tris, 137 mM NaCl, 1% Triton X-100, 2 mM EDTA; pH 8) plus protease inhibitors (1 μl:1 ml PMSF and 3 μl:1 ml Aprotinin) and triturated by using a Polytron for 10 seconds. Subsequently, the triturated pellet is distributed in 1.5 ml eppendorfs and rotated or shaken for 2 h at 4° C. […] The Bradford reagent is used to quantify the protein contained in each eppendorf. […]
The steps for electrophoresis are the following: • a) Prepare the lower and the upper acrilamide gels. The % for APP gel is 10% lower gel and 5% stacking gel. • b) Prepare 24 μl of sample at a concentration of 25 μg (determined by the Bradford Assay) (6 μl SB 4× containing β-mercaptoethanol+protein+lisis) and boil them at 100° C. for 5 minutes to denaturalize them. • c) Put the protein marker and the samples in the wells of the gel (20-30 μL). • d) Proceed to Migration: 35 mA (nearly 1 hour). […]

[7] = T30 5 uM + NBP-14 5 nM (1st of 10 values)
[8] = T30 5 uM + NBP-14 7 nM (2nd of 10 values)
[9] = T30 5 uM + NBP-14 9 nM (3rd of 10 values)
[10] = T30 5 uM + NBP-14 10 nM (4th of 10 values)
[11] = T30 5 uM + NBP-14 20 nM (5th of 10 values)
[12] = T30 5 uM + NBP-14 50 nM (6th of 10 values)
[13] = T30 5 uM + NBP-14 70 nM (7th of 10 values)
[14] = T30 5 uM + NBP-14, 9th of 10 values, concentration unclear
[15] = T30 5 uM + NBP-14, 10th of 10 values, concentration unclear

T2 sequence (Q05941 23-502): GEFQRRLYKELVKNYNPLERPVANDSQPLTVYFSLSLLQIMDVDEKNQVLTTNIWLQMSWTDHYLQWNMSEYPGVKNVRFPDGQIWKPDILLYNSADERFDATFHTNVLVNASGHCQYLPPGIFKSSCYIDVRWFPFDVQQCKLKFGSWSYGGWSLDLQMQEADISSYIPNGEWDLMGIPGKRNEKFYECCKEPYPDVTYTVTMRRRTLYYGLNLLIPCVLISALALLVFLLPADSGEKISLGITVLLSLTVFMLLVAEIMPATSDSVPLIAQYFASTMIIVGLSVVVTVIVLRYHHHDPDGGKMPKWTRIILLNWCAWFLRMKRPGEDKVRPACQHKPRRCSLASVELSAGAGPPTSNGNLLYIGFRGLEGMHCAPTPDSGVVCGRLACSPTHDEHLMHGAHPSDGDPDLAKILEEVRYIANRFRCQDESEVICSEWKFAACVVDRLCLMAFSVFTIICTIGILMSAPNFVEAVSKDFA
allosteric site on the α7 nicotinic-receptor, sequence (Q05941 23-502): as above
T1 sequence (Q05941 23-502): as above

In the case of `CSCC[C@@H]1NC(=O)[C@H](Cc2ccc(O)cc2)NC(=O)[C@H](CO)NC(=O)[C@H](CO)NC(=O)[C@H](Cc2c[nH]c3ccccc23)NC(=O)[C@H](CCCNC(=N)N)NC(=O)[C@H](Cc2c[nH]cn2)NC(=O)[C@H](Cc2ccccc2)NC(=O)[C@H](CCC(=O)O)NC(=O)[C@H](C)NC(=O)[C@H](CCCCN)NC(=O)[C@H](Cc2c[nH]c3ccccc23)NC(=O)[C@H](Cc2c[nH]cn2)NC(=O)[C@H](C(C)C)NC1=O` [Cyclic T14] (cyclo(AEFHRWSSYMVHWK)), the “% [3H] Ivermectin binding (Mean ± SEM)” value ([1]; 100 nM competitor, Table 2, N = 6) is reported as 98.10 ± 3.28%, the “% [3H] Ivermectin binding (Mean ± SEM)” value ([1]; 200 nM competitor, Table 2) is reported as 80.81 ± 4.37% and the “% [3H] Ivermectin binding (Mean ± SEM)” value ([1]; 500 nM competitor, Table 2) is reported as 79.72 ± 6.76%. The “% [3H] Ivermectin binding (Mean ± SEM)” value ([1]; 700 nM competitor, Table 2) was 62.26 ± 17.63%, the “% [3H] Ivermectin binding (Mean ± SEM)” value ([1]; 1 μM competitor, Table 2) was 29.006 ± 8.23% and the “% [3H] Ivermectin binding (Mean ± SEM)” value ([1]; 2 μM competitor, Table 2) was 13.46 ± 10.40%. For the same compound, the “AChE activity, T14 combined with Cyclic T14” value ([2]; T14 10 μM + Cyclic T14 100 nM, 1 hour) was 112.30±1.39, the “released AChE activity, T30 + NBP-14” value [2, 7] was 130.73±1.84% and the “released AChE activity, T30 + NBP-14” value [2, 8] was 111.68±2.26%. The “released AChE activity, T30 + NBP-14” value [2, 9] was 92.78±0.99%, the “released AChE activity, T30 + NBP-14” value [2, 10] was 82.56±2.38% and the “released AChE activity, T30 + NBP-14” value [2, 11] was 68.90±0.92%. The “released AChE activity, T30 + NBP-14” value [2, 12] was 65.12±1.32%, the “released AChE activity, T30 + NBP-14” value [2, 13] was 61.04±0.97% and the “released AChE activity, T30 + NBP-14” value ([2]; T30 5 uM + NBP-14, 8th of 10 values, concentration unclear) was 79.43±1.69%. The “released AChE activity, T30 + NBP-14” value [2, 14] was 83.91±1.24%, the “released AChE activity, T30 + NBP-14” value [2, 15] was 89.55±1.25% and the “concentration range protective against AChE compensatory effects” value ([2]; T30 5 uM, FIG. 14) was “high nanomolar concentrations”. The “affinity (Table 3 feature)” value ([3]; ✓ = Dream Drug feature 'Nanomolar affinity') was “✓”, the “receptor specificity (Table 3 feature)” value ([3]; ✓ = Dream Drug feature 'Specific action at α7 receptor') was “✓” and the “calcium influx, T30 + NBP-14” value [4, 7] was 134.2497±6.85%. For the same compound, the “calcium influx, T30 + NBP-14” value [4, 8] was 120.8612±8.65%, the “calcium influx, T30 + NBP-14” value [4, 9] was 113.9162±8.82% and the “calcium influx, T30 + NBP-14” value [4, 10] was 140.776±12.16%. The “calcium influx, T30 + NBP-14” value [4, 11] was 115.83±7.67%, the “calcium influx, T30 + NBP-14” value [4, 12] was 110.3213±13.21% and the “calcium influx, T30 + NBP-14” value [4, 13] was 125.9596±0.1%. For the same compound, the “calcium influx, T30 + NBP-14” value ([4]; T30 5 uM + NBP-14, 8th of 10 values, only 9 concentrations printed (.. 70, 1000, 5000 nM), concentration unclear) was 99.85±0.32%, the “calcium influx, T30 + NBP-14” value [4, 14] was 115.1942±9.84% and the “calcium influx, T30 + NBP-14” value [4, 15] was 79.99±14.04%. For the same compound, the “concentration range protective against T30-induced calcium influx” value ([4]; T30 5 uM, FIG. 13) was “low nanomolar range”, the viability ([5]; T30 5 uM + NBP-14 5 nM (1st of 10 values), read-out: cell viability, T30 + NBP-14) was 76.2 ± 7.51% and the viability ([5]; T30 5 uM + NBP-14 7 nM (2nd of 10 values), read-out: cell viability, T30 + NBP-14) was 67 ± 4.35%. For the same compound, the viability ([5]; T30 5 uM + NBP-14 9 nM (3rd of 10 values), read-out: cell viability, T30 + NBP-14) was 76 ± 4.22%, the viability ([5]; T30 5 uM + NBP-14 10 nM (4th of 10 values), read-out: cell viability, T30 + NBP-14) was 71.4 ± 1.64% and the viability ([5]; T30 5 uM + NBP-14 20 nM (5th of 10 values), read-out: cell viability, T30 + NBP-14) was 79 ± 10.2%. The viability ([5]; T30 5 uM + NBP-14 50 nM (6th of 10 values), read-out: cell viability, T30 + NBP-14) was 75.2 ± 3.9%, the viability ([5]; T30 5 uM + NBP-14 70 nM (7th of 10 values), read-out: cell viability, T30 + NBP-14) was 62.4 ± 3.01% and the viability ([5]; T30 5 uM + NBP-14, 8th of 10 values, concentration unclear, read-out: cell viability, T30 + NBP-14) was 78.1 ± 2.16%. The viability ([5]; T30 5 uM + NBP-14, 9th of 10 values, concentration unclear, read-out: cell viability, T30 + NBP-14) was 117 ± 3.62%, the viability ([5]; T30 5 uM + NBP-14, 10th of 10 values, concentration unclear, read-out: cell viability, T30 + NBP-14) was 108 ± 5.1% and the “levels of full length APP (control 100%)” value ([6]; T30 5 μM + NBP-14 0.5 μM) was 126%±1.12.

For “KAEFHRWSSYMVHWKNQFDHYSKQDRCSDL [T30, reference compound]”, the “% [3H] Ivermectin binding (Mean ± SEM)” value ([1]; 1 nM competitor, Table 1) was 109.16 ± 11.9%, the “% [3H] Ivermectin binding (Mean ± SEM)” value ([1]; 10 nM competitor, Table 1) was 116.63 ± 13.25% and the “% [3H] Ivermectin binding (Mean ± SEM)” value ([1]; 100 nM competitor, Table 1) was 106.15 ± 8.04%. For the same compound, the “% [3H] Ivermectin binding (Mean ± SEM)” value ([1]; 1 μM competitor, Table 1) was 97.41 ± 7.9%, the “% [3H] Ivermectin binding (Mean ± SEM)” value ([1]; 5 μM competitor, Table 1) was 80.22 ± 3.81% and the “AChE activity, peptide alone” value ([2]; 10 μM, 1 hour, PC12) was 129.10±1.18. For the same compound, the “released AChE activity” value ([2]; T30 5 uM alone, N=3) was 169.45%±2.11, the “binding affinity for the allosteric site on the α7 nicotinic-receptor” value [3] was 5 nM and the “increase of calcium influx” value ([4]; PC12 cells) was “about 70%”. The “calcium influx (acetylcholine control = 100%)” value ([4]; T30 5 uM alone, ACh 100 μM, N=3) was 171.05%±6.21, the viability ([5]; T30 5 uM alone, 1 hour, N=3, read-out: cell viability) was 74.3% and the cytotoxicity ([5]; T30 5 uM, read-out: decrease of cell viability) was 25%. For the same compound, the “levels of full length APP (control 100%)” value ([6]; T30 5 μM) was 67.82%±6.23.

— patent publication US12139729B2, “Neurodegenerative disorders” (priority 2013, dated 2024)
